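How tested: cells in 96-well plates exposed to compound for 48 hours at five concentrations. Abbreviation: GI50, concentration required for 50% inhibition of growth.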 Active and inactive are the calls of the source. No stated cut-off is given here; in the data, active = GI50 up to about 1.1 µM and inactive = higher. Where a SMILES comes first, the peptide text is derived from it. [ ]: non-standard residue; d: D form. The star is where a group is joined. NMeAc5c = CNC1(C(=O)O)CCCC1; Boc = CC(C)(C)OC(=O)*; OBn = c1ccc(CO*)cc1
Legend:
Test in all cases: NCI tumour cell line growth inhibition, 48 h
SF-539 = test system: SF-539
Malme-3M = test system: Malme-3M
CCRF-CEM = test system: CCRF-CEM
HCT-15 = test system: HCT-15
NCI-H23 = test system: NCI-H23
SNB-75 = test system: SNB-75
SR = test system: SR
U-251 = test system: U-251
LOX IMVI = test system: LOX IMVI
A549 = test system: A549
HL-60 = test system: HL-60
NCI/ADR-RES = test system: NCI/ADR-RES
MCF7 = test system: MCF7
MDA-MB-435 = test system: MDA-MB-435
TK-10 = test system: TK-10
IGROV-1 = test system: IGROV-1
OVCAR-8 = test system: OVCAR-8
OVCAR-3 = test system: OVCAR-3
KM12 = test system: KM12
NCI-H226 = test system: NCI-H226

Row | Structure (SMILES) | GI50 (SF-539) | GI50 (Malme-3M) | GI50 (CCRF-CEM) | GI50 (HCT-15) [µM] | GI50 (NCI-H23) | GI50 (SNB-75) | GI50 (SR) | GI50 (U-251) | GI50 (LOX IMVI) | GI50 (A549) | GI50 (HL-60) | GI50 (NCI/ADR-RES) | GI50 (MCF7) | GI50 (MDA-MB-435) | GI50 (TK-10) | GI50 (IGROV-1) | GI50 (OVCAR-8) | GI50 (OVCAR-3) | GI50 (KM12) | GI50 (NCI-H226)
1 | COc1ccc(-n2c(N)c(C#N)c(C#N)c2-c2ccccc2)cc1 | 11 µM (inactive) | > 100 µM (inactive) | > 100 µM (inactive) | > 100 | > 100 µM (inactive) | 2.74 µM (inactive) | > 100 µM (inactive) | 30.1 µM (inactive) | > 100 µM (inactive) | > 100 µM (inactive) | > 100 µM (inactive) | > 100 µM (inactive) | > 100 µM (inactive) | > 100 µM (inactive) | > 100 µM (inactive) | 24.2 µM (inactive) | 84.7 µM (inactive) | > 100 µM (inactive) | > 100 µM (inactive) | 13.8 µM (inactive)
2 | CCN(CC)C1Oc2cc3c(cc2C(c2cc(OC)c(OC)c(OC)c2)C1C)OCO3 (stereo not given) | 0.457 µM (active) | 0.748 µM (active) | 0.406 µM (active) | 0.518 | 1.53 µM (inactive) | 4.25 µM (inactive) | 0.256 µM (active) | 0.6 µM (active) | 0.762 µM (active) | 1.55 µM (inactive) | 0.242 µM (active) | 0.219 µM (active) | 0.435 µM (active) | 0.113 µM (active) | 26.5 µM (inactive) | 1.52 µM (inactive) | 1.39 µM (inactive) | 0.387 µM (active) | 0.53 µM (active) | 0.875 µM (active)
3 | Cc1ccc(S(=O)(=O)NNC(C[N+](=O)[O-])c2ccccc2)cc1 (stereo not given) | 27.1 µM (inactive) | 29 µM (inactive) | > 100 µM (inactive) | 15.9 | 43 µM (inactive) | 22.7 µM (inactive) | 1.06 µM (active) | 14.5 µM (inactive) | 3.64 µM (inactive) | 16.7 µM (inactive) | 3.71 µM (inactive) | 54.6 µM (inactive) | 3.88 µM (inactive) | 2.91 µM (inactive) | 24.2 µM (inactive) | 7.23 µM (inactive) | 22 µM (inactive) | 21.7 µM (inactive) | 14.1 µM (inactive) | 26.3 µM (inactive)
4 | CN(C)c1ccc(/N=C2/C=CC(=C(C#N)C#N)c3ccccc32)cc1 | 0.208 µM (active) | 0.625 µM (active) | 0.094 µM (active) | 0.195 | 0.259 µM (active) | 0.363 µM (active) | 0.0345 µM (active) | 0.333 µM (active) | 0.282 µM (active) | 0.436 µM (active) | 0.0541 µM (active) | 0.0975 µM (active) | 0.178 µM (active) | 0.0391 µM (active) | 1.82 µM (inactive) | 0.222 µM (active) | 0.213 µM (active) | 0.118 µM (active) | 0.381 µM (active) | 0.236 µM (active)
5 | Cc1c2ccccc2c(CSC(=N)N)c2ccccc12 | 0.118 µM (active) | 0.149 µM (active) | 0.0203 µM (active) | 0.269 | 0.106 µM (active) | 0.178 µM (active) | 0.0194 µM (active) | 0.176 µM (active) | 0.202 µM (active) | 0.216 µM (active) | 0.111 µM (active) | 0.234 µM (active) | 0.104 µM (active) | 0.181 µM (active) | 0.222 µM (active) | 0.312 µM (active) | 0.199 µM (active) | 0.264 µM (active) | 0.218 µM (active) | 0.247 µM (active)
6 | CN(C(=O)C(Cc1ccccc1)NC(=O)OC(C)(C)C)C1(C(=O)NC(Cc2ccccc2)C(=O)OCc2ccccc2)CCCC1 (stereo not drawn) (Boc-Phe-[NMeAc5c]-Phe-OBn; configuration not given here) | 74.3 µM (inactive) | > 100 µM (inactive) | 39.7 µM (inactive) | 28.7 | 43.7 µM (inactive) | > 100 µM (inactive) | 22.2 µM (inactive) | 20.9 µM (inactive) | 45.1 µM (inactive) | 33.3 µM (inactive) | 24.9 µM (inactive) | 27.7 µM (inactive) | 32.1 µM (inactive) | 37.3 µM (inactive) | 34.8 µM (inactive) | 53.6 µM (inactive) | 38 µM (inactive) | 31.8 µM (inactive) | 36.6 µM (inactive) | 40.6 µM (inactive)
7 | CC(C)N(Cc1ccccc1)S(=O)(=O)c1nc(C(C)(C)C)n[nH]1 | > 100 µM (inactive) | > 100 µM (inactive) | > 100 µM (inactive) | > 100 | > 100 µM (inactive) | > 100 µM (inactive) | > 100 µM (inactive) | > 100 µM (inactive) | > 100 µM (inactive) | > 100 µM (inactive) | 46.1 µM (inactive) | > 100 µM (inactive) | > 100 µM (inactive) | > 100 µM (inactive) | > 100 µM (inactive) | > 100 µM (inactive) | > 100 µM (inactive) | > 100 µM (inactive) | > 100 µM (inactive) | > 100 µM (inactive)
8 | C/C(=N/NC(=S)N1CCCCCC1)c1ccccc1O | 3.86 µM (inactive) | 2.59 µM (inactive) | 0.792 µM (active) | 1.26 | 14 µM (inactive) | 16.4 µM (inactive) | 0.492 µM (active) | 1.87 µM (inactive) | 2.07 µM (inactive) | 6.05 µM (inactive) | 2.25 µM (inactive) | 1.69 µM (inactive) | 3.31 µM (inactive) | 5.82 µM (inactive) | 3.58 µM (inactive) | 3.72 µM (inactive) | 2.81 µM (inactive) | 1.38 µM (inactive) | 3.67 µM (inactive) | > 22 µM (inactive)
9 | CC(=O)Nc1ccc2[nH]c(C(=O)N3CC(CCl)c4c3cc(N)c3ccccc43)cc2c1 (stereo not given) | 0.0129 µM (active) | < 0.01 µM (active) | < 0.01 µM (active) | 0.0267 | 0.0102 µM (active) | < 0.01 µM (active) | < 0.01 µM (active) | 0.0143 µM (active) | < 0.0115 µM (active) | 0.0128 µM (active) | < 0.01 µM (active) | 0.0182 µM (active) | 0.0107 µM (active) | 0.0147 µM (active) | < 0.0157 µM (active) | 0.0143 µM (active) | < 0.0133 µM (active) | 0.0189 µM (active) | < 0.01 µM (active) | < 0.0135 µM (active)
10 | C=C1C(=O)OC2CC1C(O)C/C(C)=C/CC/C(C)=C/C(O)CC2C (stereo not given) | 2.35 µM (inactive) | 2.37 µM (inactive) | 0.203 µM (active) | 1.73 | 2.44 µM (inactive) | 3.43 µM (inactive) | 0.52 µM (active) | 4.68 µM (inactive) | 1.29 µM (inactive) | 12.4 µM (inactive) | 0.262 µM (active) | 2 µM (inactive) | 2.06 µM (inactive) | 2.85 µM (inactive) | 2.05 µM (inactive) | 2.75 µM (inactive) | 1.89 µM (inactive) | 2.7 µM (inactive) | 5.21 µM (inactive) | 9.33 µM (inactive)
11 | O=C1C=CC(=O)c2c1ccc1c3ccccc3n(CCCCCn3c4ccccc4c4ccc5c(c43)C(=O)C=CC5=O)c21 | 16.1 µM (inactive) | 16.7 µM (inactive) | 0.454 µM (active) | 17.2 | 16 µM (inactive) | 14.9 µM (inactive) | 1.9 µM (inactive) | 20 µM (inactive) | 16 µM (inactive) | > 100 µM (inactive) | 0.875 µM (active) | 25.6 µM (inactive) | 19.7 µM (inactive) | 22 µM (inactive) | 12.4 µM (inactive) | 14.7 µM (inactive) | 17.7 µM (inactive) | 17.9 µM (inactive) | > 100 µM (inactive) | > 100 µM (inactive)
12 | CC(=O)Oc1c(-c2ccccc2)oc2ccccc12 | 1.36 µM (inactive) | 2.83 µM (inactive) | 1.58 µM (inactive) | 1.99 | 1.77 µM (inactive) | 1.57 µM (inactive) | 0.394 µM (active) | 1.04 µM (active) | 0.398 µM (active) | 1.51 µM (inactive) | 1.12 µM (inactive) | 2.66 µM (inactive) | 2.11 µM (inactive) | 2.43 µM (inactive) | 3.73 µM (inactive) | 2.08 µM (inactive) | 2.88 µM (inactive) | 2.12 µM (inactive) | 1.09 µM (active) | 2.07 µM (inactive)
13 | C=CC1(c2ccc(Br)cc2)OCCCO1 | > 100 µM (inactive) | > 100 µM (inactive) | > 100 µM (inactive) | > 100 | > 100 µM (inactive) | > 100 µM (inactive) | > 100 µM (inactive) | > 100 µM (inactive) | > 100 µM (inactive) | > 100 µM (inactive) | > 100 µM (inactive) | > 100 µM (inactive) | > 100 µM (inactive) | > 100 µM (inactive) | > 100 µM (inactive) | > 100 µM (inactive) | > 100 µM (inactive) | > 100 µM (inactive) | > 100 µM (inactive) | > 100 µM (inactive)
14 | Cc1cccc(C)c1/N=N/c1ccc(O)c(CN(C)C)c1 | 79.4 µM (inactive) | 20.5 µM (inactive) | 34.8 µM (inactive) | > 100 | 60.1 µM (inactive) | 75.3 µM (inactive) | 34.4 µM (inactive) | > 100 µM (inactive) | 36.5 µM (inactive) | 65.9 µM (inactive) | 26.9 µM (inactive) | 41.2 µM (inactive) | 89.1 µM (inactive) | 41.8 µM (inactive) | 59.6 µM (inactive) | 26.3 µM (inactive) | > 100 µM (inactive) | 45.3 µM (inactive) | > 100 µM (inactive) | 87.9 µM (inactive)

Source: ChEMBL document CHEMBL1201862, “PubChem BioAssay data set” (2004)
